The values below come from US20230141603A1, “BENZODIAZEPINE DERIVATIVES AS GABA A GAMMA1 PAM” (Hoffmann-La Roche Inc., priority 2021, published 2023).

The test has as its target T1, h-GABAA α5β2γ1 (Homo sapiens, UniProt P31644+Q8N1C3).
T1 construct: expressed in transfected cells; host or cells: HEK293F cells (ThermoFisher R79007), membranes
T1 sequence (P31644 32-462): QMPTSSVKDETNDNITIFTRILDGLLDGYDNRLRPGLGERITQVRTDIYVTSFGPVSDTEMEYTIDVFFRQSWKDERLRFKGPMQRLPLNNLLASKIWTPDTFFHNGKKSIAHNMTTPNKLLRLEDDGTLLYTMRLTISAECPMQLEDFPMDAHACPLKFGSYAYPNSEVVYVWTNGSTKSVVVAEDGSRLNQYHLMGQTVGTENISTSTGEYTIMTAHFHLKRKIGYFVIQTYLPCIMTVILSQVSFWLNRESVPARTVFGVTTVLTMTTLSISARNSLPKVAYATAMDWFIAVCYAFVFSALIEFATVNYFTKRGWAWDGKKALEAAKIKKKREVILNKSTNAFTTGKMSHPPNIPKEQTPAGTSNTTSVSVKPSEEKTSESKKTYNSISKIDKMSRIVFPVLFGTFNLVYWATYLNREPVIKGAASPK
T1 sequence (P47870 25-512 partner limits assumed): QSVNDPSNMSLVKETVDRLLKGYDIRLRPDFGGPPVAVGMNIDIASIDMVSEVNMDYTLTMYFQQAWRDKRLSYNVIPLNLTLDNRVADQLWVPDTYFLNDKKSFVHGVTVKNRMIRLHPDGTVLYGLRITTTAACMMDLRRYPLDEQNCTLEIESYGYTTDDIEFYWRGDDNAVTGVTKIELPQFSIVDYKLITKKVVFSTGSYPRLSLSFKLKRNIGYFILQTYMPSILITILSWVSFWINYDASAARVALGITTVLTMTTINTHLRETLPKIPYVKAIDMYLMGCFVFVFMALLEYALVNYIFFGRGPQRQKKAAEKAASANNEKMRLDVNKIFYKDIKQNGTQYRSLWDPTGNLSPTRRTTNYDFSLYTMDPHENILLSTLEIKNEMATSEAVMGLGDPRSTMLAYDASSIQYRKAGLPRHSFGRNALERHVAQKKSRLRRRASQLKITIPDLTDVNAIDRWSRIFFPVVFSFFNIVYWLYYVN
T1 sequence (Q8N1C3 36-465): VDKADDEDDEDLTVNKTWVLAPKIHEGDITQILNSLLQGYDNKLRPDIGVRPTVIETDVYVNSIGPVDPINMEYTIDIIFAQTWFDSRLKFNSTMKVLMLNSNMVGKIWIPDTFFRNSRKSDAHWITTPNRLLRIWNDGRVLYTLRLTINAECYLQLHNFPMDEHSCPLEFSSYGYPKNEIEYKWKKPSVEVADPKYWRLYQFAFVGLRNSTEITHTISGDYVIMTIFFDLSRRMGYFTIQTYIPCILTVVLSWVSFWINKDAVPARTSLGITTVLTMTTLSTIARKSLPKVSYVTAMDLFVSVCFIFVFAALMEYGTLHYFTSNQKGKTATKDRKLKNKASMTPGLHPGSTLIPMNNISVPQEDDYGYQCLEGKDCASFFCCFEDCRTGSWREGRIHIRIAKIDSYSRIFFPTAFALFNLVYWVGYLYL
Kind of test: Radioligand binding assay, [3H]RO7239181 competition, HEK293F membranes. The gist of the method: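 Competition for [3H]RO7239181 (1.5 nM) binding to membranes from HEK293F cells transiently expressing human α5β2γ1 receptors. Compounds tested at 0.3–10000 nM; nonspecific binding defined with 10 μM RO7235136. Incubation 1 h at 4 °C in 10 mM KPi/100 mM KCl, pH 7.4; filtration, scintillation counting; Ki as mean of two determinations.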
Turning to `Cc1nnc2n1-c1ccc(C(F)(F)F)c(Cl)c1C(c1ncccc1F)=NC2` [Example 78, 7-chloro-6-(3-fluoro-2-pyridyl)-1-methyl-8-(trifluoromethyl)-4H-[1,2,4]triazolo[4,3-a][1,4]benzodiazepine], the Ki is 7.8 nM.

As for `COc1ccc2c(c1Cl)C(c1c(F)cccc1F)=NCc1nnc(C3CC3)n1-2` [Example 79, 7-chloro-1-cyclopropyl-6-(2,6-difluorophenyl)-8-methoxy-4H-[1,2,4]triazolo[4,3-a][1,4]benzodiazepine], affinity was put at a Ki of 6.8 nM.

`COc1nnc2n1-c1ccc(Cl)c(Cl)c1C(c1c(F)cccc1F)=NC2` [Example 90, 7,8-dichloro-6-(2,6-difluorophenyl)-1-methoxy-4H-[1,2,4]triazolo[4,3-a][1,4]benzodiazepine] yielded a Ki of 1 nM. Against the preceding molecule, the Ki is about 6.8-fold lower.

`CO[C@H]1C[C@H](c2nnc3n2-c2ccc(Cl)c(Cl)c2C(c2c(F)cccc2F)=NC3)C1` [Example 91, trans-7,8-dichloro-6-(2,6-difluorophenyl)-1-(3-methoxycyclobutyl)-4H-[1,2,4]triazolo[4,3-a][1,4]benzodiazepine]: the Ki worked out at 3.1 nM. Against the preceding molecule, the Ki is about 3.1-fold higher.

The molecule `Fc1cccc(F)c1C1=NCc2nnc(-c3cccnn3)n2-c2ccc(Br)c(Cl)c21` [Example 104, 8-bromo-7-chloro-6-(2,6-difluorophenyl)-1-pyridazin-3-yl-4H-[1,2,4]triazolo[4,3-a][1,4]benzodiazepine] had an inhibitory constant (Ki) of 0.6 nM.

A word on the Ki: it is the dissociation constant of the complex between target and ligand, obtained from inhibition or displacement. Low values mean tighter binding, high ones weaker binding.
